Assay results published in US20160272992A1, “PROTECTION OF PLANTS AGAINST OXIDATIVE STRESS” (priority 2013, published 2016).

How the values were obtained:
Arabidopsis seedlings = test: High-light transfer of seedlings: PSII efficiency (chlorophyll a fluorescence) and leaf appearance; assay type: in vivo, Arabidopsis thaliana
Description: Unless stated otherwise, plants of Arabidopsis thaliana (L.) Heyhn (ecotype Columbia), were grown under long-day conditions (16 hours of light, 8 hours of darkness) at 22° C. on half-strength Murashige and Skoog (MS) germination medium (Murashige and Skoog, 1962). Arabidopsis plants were treated with HU as described by Cools et al. (2011). […] For light treatments, one-week-old seedlings were transferred to continuous high-light conditions (growth rooms kept at 22° C. with 24-hour day/0-hour night cycles and a light intensity of 300-400 μmol m^−2 s^−1) for 2 days, and subsequently retransferred to low-light conditions.
Chlorophyll a fluorescence parameters were measured using the IMAGING PAM M-Series Chlorofyll Fluorescence (Walz) and associated software.

SIM/SMR promoters = test: SIM/SMR promoter:GUS transcriptional reporter lines; assay type: in vivo, Arabidopsis thaliana
Description: SIM/SMR promoter sequences were amplified from genomic DNA by PCR using the primers described in Table 5. The product fragments were created with the Pfu DNA Polymerase Kit (Promega, Catalog #M7745), and were cloned into a pDONR P4-Plr entry vector by BP recombination cloning and subsequently transferred into the pMK7S*NFml4GW,0 destination vector by LR cloning, resulting in a transcriptional fusion between the promoter of the SMR genes and the nlsGFP-GUS fusion gene (Karimi et al., 2007). For the overexpression constructs, the SMR coding regions were amplified using primers described in Table 5, and cloned into the pDONR221 vector by BP recombination cloning and subsequently transferred into the pK2GW7 destination vector (Kamimi et al., 2002) by LR cloning. All constructs were transferred into the Agrobacterium tumefaciens C58C1RifR strain harboring the pMP90 plasmid. The obtained Agrobacterium strains were used to generate stably transformed Arabidopsis lines with the floral dip transformation method (Clough and Bent, 1998). Transgenic plants were obtained on kanamycin-containing medium and later transferred to soil for optimal seed production.
Complete seedlings or tissue cuttings were stained in multiwell plates (Falcon 3043; Becton Dickinson). GUS assays were performed as described by Beeckman and Engler (1994). Samples mounted in lactic acid were observed and photographed with a stereomicroscope (Olympus BX51 microscope) or with a differential interference contrast (DIC) microscope (Leica).
To confirm involvement of SIM/SMR genes in the genotoxic stress response, transcriptional reporter lines containing the putative upstream promoter sequences were constructed for all. After selection of representative reporter lines, one-week-old seedlings were transferred to control medium, or medium supplemented with HU (resulting into stalled replication forks) or bleomycin (causing DSBs).

ZmSMRg and ZmSMRh = test: qRT-PCR of maize SMR genes after HU treatment; assay type: in vivo; settings: root tips and leaves

NC(=O)NO [HU, hydroxyurea]
maximum quantum efficiency of PSII (F′v/F′m) (Arabidopsis seedlings; one-week-old seedlings, 48 hours high light, in the presence of HU vs absence): decrease was even more pronounced | anthocyanin accumulation after transfer to high light (Arabidopsis seedlings; plants grown in the presence of HU, within 48 hours after transfer): accumulated anthocyanins in the young leaf tissue | transcriptional induction of SMR4, SMR5 and SMR7 reporters in the root meristem (SIM/SMR promoters; one-week-old seedlings, 1 mM HU, GUS assay 24 hours after transfer): strong transcriptional induction | induction of SMR5 and SMR7 GUS reporters in the proliferating leaf (SIM/SMR promoters; treated for 24 hours): induced | transcriptional induction of maize SMR genes ZmSMRg and ZmSMRh (ZmSMRg and ZmSMRh): strong up-regulation
